Experimental data from US20050008695A1, “Compositions and methods for delivering a biologically active agent” (Control Delivery Systems, Inc., priority 2003, published 2005).

Tests used:
[1] = not told
[2] = Aqueous solubility compared with constituent drugs; type: physicochemical; conditions: qualitative comparison with the unlinked drugs
[3] = Hydrolysis rate (half-life) in human plasma; type: in vitro ADME
Source text: (§1) Hydrolysis Rate (half-life t½)
(§2) Hydrolysis Rate (half life t½)

[4] = Hydrolysis rate (half-life) in buffer, pH 7.4; type: physicochemical
Source text: as §1, §2

[5] = Lipophilicity compared with constituent drug; type: physicochemical; conditions: qualitative comparison
[6] = read-out: Hydrolysis Rate (half life t½) In Human Plasma (converted)
[7] = read-out: Hydrolysis Rate (half-life t½) In Buffer, pH7.4 (converted)
[8] = read-out: Hydrolysis Rate (half-life t½) In Human Plasma

Structure (SMILES)	Aqueous / water solubility relative to constituent drug(s) [2]	half-life [3, 6] [h]	half-life [4, 7] [h]	Lipophilicity relative to constituent drug [5]	half-life [3, 8] [h]	further results
O=C(O)Cc1ccccc1Nc1c(Cl)cccc1Cl.O=C(O)c1cn(C2CC2)c2cc(N3CCNCC3)c(F)cc2c1=O [diclofenac-ciprofloxacin codrug]						Permeation [1]: enhanced permeation
CC1(C)O[C@@H]2CC3C4C[C@H](F)C5=CC(=O)C=CC5(C)[C@@]4(F)CCC3(C)[C@]2(C(=O)COC(=O)Cc2ccccc2Nc2c(Cl)cccc2Cl)O1 (stereo partly shown) [Diclofenac-Fluocinolone Acetonide]	lower solubility under aqueous conditions than either of the constituent drugs	168	15			
CC1COc2c(N3CCN(C)CC3)c(F)cc3c(=O)c(C(=O)OCCOCCOC(=O)Cc4ccccc4Nc4c(Cl)cccc4Cl)cn1c23 (stereo not shown) [Diclofenac-Ofloxacin]		6.5		more lipophilic than ofloxacin alone		Hydrolysis Rate (half life t½) In Buffer, pH7.4 ([4]; given in words, no number): days
O=C(Cc1ccccc1Nc1c(Cl)cccc1Cl)OCc1oc(=O)oc1COC(=O)Cc1ccccc1Nc1c(Cl)cccc1Cl [Diclofenac Dimer]			25		0.1	
O=C(Cc1ccccc1Nc1c(Cl)cccc1Cl)OCCOCCOCCOCCO [Diclofenac-PEG4]	higher water solubility than unionized diclofenac			more lipophilic than the ionized form	0.167	half-life ([4]; read-out: Hydrolysis Rate (half life t½) In Buffer, pH7.4 (converted)): 168 h
